Entries after “also recorded” stand apart in the source; their conditions may differ.
How the values were obtained:
[1] = system: N-MYC mRNA in HOP62 cells; assay: N-MYC mRNA levels in HOP62 cells (RT-PCR); assay type: cell-based; conditions: 500 nM, after 4 hours, maintained after 24 hours
Protocol: (§1) Five established NSCLC cell lines, HOP62, HOP92, A549, H2228, and H3122 harboring different oncogenic mutations for KRAS, LKB1, TP53 and ALK (FIG. 19) were exposed to increasing doses of compound (1-1) (OncoEthix SA, Switzerland) for 72 h and cell proliferation was evaluated by MTT assays. Results represent the mean±95% CI of at least 3 independent experiments performed in triplicate. Protein levels were analyzed by Western blot using commercial antibodies. For cell cycle analysis cells were stained with PI and analyzed using a FACScan flow cytometer after 24 h of treatment. RT-PCR was performed using Fast SYBR Green Master Mix on a StepOnePlus Real-Time PCR System. Results represent the mean±SD of at least 2 independent experiments, where *p<0.05 versus control cells (0.1% DMSO), employing Anova followed by Dunnett's Multiple Comparison Test. Concomitant compound (1-1) combination studies were performed in cell lines exposed for 48 h to increasing doses of compound (1-1) alone or in combination with everolimus or crizotinib, and assessed using the Chou & Talalay method. Combination Index (CI) was determined by median effect plot analysis using CalcuSyn software. CI<1 synergy, CI=1 additivity and CI>1 antagonist effects. Results represent the median and range of 3 independent experiments performed in triplicate.

C-MYC = C-MYC protein and mRNA levels in NSCLC cell lines (Western blot, RT-PCR); assay type: cell-based; conditions: NSCLC cell lines (Example 7)
Protocol: (§2) Five established NSCLC cell lines (i.e. H2228, H3122, A549, HOP62 and HOP92) were exposed to increasing doses of compound (1-1) (OncoEthix SA, Switzerland). Effect on cell viability was determined by the MTT assay after 72 h exposure. The growth inhibition (GI) 50% values were determined by GraphPad Prism 5.0 software. And protein levels were analyzed by Western Blot using commercial antibodies. RNA was extracted with the Qiagen RNAEasy kit and reverse-transcribed using the Superscript First-Strand Synthesis System for RT-PCR kit following manufacturer's instructions. RT-PCR was performed using Fast SYBR Green Master Mix on a StepOnePlus Real-Time PCR System.

H3122 tumor = H3122 tumor growth in nude mice; assay type: in vivo, male athymic NMRI nude mice; conditions: gavage, continuous
Protocol: 5.10^6 H3122 cells were injected in the flank of male athymic NMRI nude mice, and mice were randomized to 3 groups (8 mice/group) when tumor volume reach 100 mm^3; vehicle (PBS, once daily, oral continuous), Compound (1-1) (50 mg/kg/bidaily, gavage, continuous), or crizotinib (25 mg/kg/daily, gavage, continuous).

[2] = system: N-MYC mRNA in H3122 cells; assay: N-MYC mRNA levels in H3122 cells (RT-PCR); assay type: cell-based
Protocol: as §2
Five established NSCLC cell lines, HOP62, HOP92, A549, H2228, and H3122 harboring different oncogenic mutations for KRAS, LKB1, TP53 and ALK (FIG. 19) were exposed to increasing doses of compound (1-1) (OncoEthix SA, Switzerland) for 72 h and cell proliferation was evaluated by MTT assays. […] Protein levels were analyzed by Western blot using commercial antibodies. For cell cycle analysis cells were stained with PI and analyzed using a FACScan flow cytometer after 24 h of treatment. […] Concomitant compound (1-1) combination studies were performed in cell lines exposed for 48 h to increasing doses of compound (1-1) alone or in combination with everolimus or crizotinib, and assessed using the Chou & Talalay method. […]

NSCLC cells = assay: Cell cycle analysis (PI staining, flow cytometer); assay type: cell-based; conditions: 24 h exposure; dihydrate
Protocol: as §1

A549 cells [3] = assay: Concomitant combination with everolimus (Chou & Talalay); assay type: cell-based; conditions: 48 h concomitant
Protocol: as §1

H2228 cells [4] = assay: as above; assay type: cell-based; conditions: 48 h concomitant
Protocol: as §1

HOP62 cells = assay: as above; assay type: cell-based; conditions: 48 h concomitant
Protocol: as §1

HOP92 cells = assay: as above; assay type: cell-based; conditions: 48 h concomitant
Protocol: as §1

[5] = system: NSCLC cell lines HOP62, HOP92, A549, H2228, H3122; assay: MTT proliferation assay in NSCLC cell line panel; assay type: cell-based; conditions: five NSCLC cell lines
Protocol: as §1

STAT3 = assay: Cell signaling pathways assessment (Western blot); assay type: cell-based; conditions: down-regulation after 24 h and up to 72 h exposure
Protocol: as §2

H2228 cells [6] = assay: Concomitant combination with crizotinib (Chou & Talalay); assay type: cell-based; conditions: combined with crizotinib, 48 h concomitant exposure, CI<1 synergy, CI=1 additivity, CI>1 antagonist, called additive
Protocol: as §1

C-MYC in HOP92 cells = assay: C-MYC mRNA and protein levels in HOP92 cells; assay type: cell-based; conditions: 500 nM, after 4 hours, maintained after 24 hours
Protocol: as §1

A549 cells [7] = assay: MTT cell viability/proliferation assay, 72 h; assay type: cell-based
Protocol: as §2, §1

H2228 cells [8] = assay: MTT cell viability/proliferation assay, 72 h; assay type: cell-based; conditions: Homo sapiens, NCI-H2228, H2228 cells (EML4-ALK-positive), 72-h exposure
Protocol: as §2, §1

H3122 cells = assay: MTT cell viability/proliferation assay, 72 h; assay type: cell-based; conditions: Homo sapiens, NCI-H3122, H3122 cells (EML4-ALK-positive), 72-h exposure
Protocol: as §2, §1

Cc1sc2c(c1C)C(c1ccc(Cl)cc1)=N[C@@H](CC(=O)Nc1ccc(O)cc1)c1nnc(C)n1-2 [Compound (1-1), 2-[(6S)-4-(4-chlorophenyl)-2,3,9-trimethyl-6H-thienol[3,2-f]-[1,2,4]triazolo[4,3-a][1,4]diazepin-6-yl]-N-(4-hydroxyphenyl)acetamide dihydrate]
N-MYC mRNA levels [1]: rapid downregulation | C-MYC protein and mRNA levels (C-MYC): not altered | tumor growth in H3122 tumor bearing-mice (H3122 tumor; 50 mg/kg/bidaily, vs vehicle, dihydrate): inhibited tumor growth to a similar extent as crizotinib; also recorded: slowed tumor progression | N-MYC mRNA levels ([2]; EML4-ALK-positive H3122 cells (Example 7)): down-regulation | N-MYC mRNA levels ([2]; H3122 cells, 500 nM, after 4 hours, maintained after 24 hours): rapid downregulation | percentage of cells in S phase (NSCLC cells): reduction in the percentage of cells in S phase; also recorded: reduction of the S phase cell fraction | combination effect with everolimus (A549 cells [3]): additive/synergistic effects | combination effect with everolimus (H2228 cells [4]): additive/synergistic effects | combination effect with everolimus (HOP62 cells): additive/synergistic effects | combination effect with everolimus (HOP92 cells): additive/synergistic effects | GI50 ([5]; 72 h-exposure, read-out: GI50 values across the cell line panel): 100 to 700 nM | cytostatic effects in NSCLC cell lines ([5]; 72 h): cytostatic effects in 4 out of 5 NSCLC cell lines | STAT3 regulation (STAT3): transient upregulation of STATS with a subsequent down-regulation | Combination Index (CI) (H2228 cells [6]): 0.9 | C-MYC mRNA and protein levels (C-MYC in HOP92 cells): rapid downregulation | effects in A549 cells (A549 cells [7]; A549 cells with concurrent KRAS and LKB1 mutations): abrogate compound (1-1) effects | GI50 (A549 cells [7]; Homo sapiens, A549, EML4-ALK-negative (A49) cell line, 72 h exposure, MTT): 432 nM | GI50 (H2228 cells [8]): 629 nM | GI50 (H3122 cells): 627 nM

C[C@@H](Oc1cc(-c2cnn(C3CCNCC3)c2)cnc1N)c1c(Cl)ccc(F)c1Cl [crizotinib, reference compound]
tumor growth in H3122 tumor bearing-mice (H3122 tumor; 25 mg/kg/daily): inhibited tumor growth to a similar extent
